Data from the supplement of paper PMC10307832.

Columns and labels:
Test in all cases: relative viability (nuclei count vs DMSO), 5 days (fraction); higher = more cells survive
Palbociclib + Tozasertib = compound: CC(=O)c1c(C)c2cnc(Nc3ccc(N4CCNCC4)cn3)nc2n(C2CCCC2)c1=O [Palbociclib] + Cc1cc(Nc2cc(N3CCN(C)CC3)nc(Sc3ccc(NC(=O)C4CC4)cc3)n2)n[nH]1 [Tozasertib] (partner 0.1 µM)
In short: (§1)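 For relative viability, nuclei counts in treated wells were divided by those in vehicle wells. Lung cancer cell lines had been pin-tool dosed in 1536-well plates the day after seeding and cultured for 5 days, then fixed and stained in one step (final 0.05% Triton X-100, 1% formaldehyde, 1 ug/ml Hoechst) and imaged at 4×. Doses were one drug alone or a fixed anchor-drug dose plus five library-drug doses (not always all listed) in √10 steps, and values are duplicate-plate medians.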

Palbociclib + Olaparib = compound: CC(=O)c1c(C)c2cnc(Nc3ccc(N4CCNCC4)cn3)nc2n(C2CCCC2)c1=O [Palbociclib] + O=C(c1cc(Cc2n[nH]c(=O)c3ccccc23)ccc1F)N1CCN(C(=O)C2CC2)CC1 [Olaparib] (partner 8 µM)
In short: as §1

Palbociclib + Decitabine = compound: CC(=O)c1c(C)c2cnc(Nc3ccc(N4CCNCC4)cn3)nc2n(C2CCCC2)c1=O [Palbociclib] + Nc1ncn([C@H]2C[C@H](O)[C@@H](CO)O2)c(=O)n1 [Decitabine] (partner 2 µM)
In short: as §1

Palbociclib + Trametinib = compound: CC(=O)c1c(C)c2cnc(Nc3ccc(N4CCNCC4)cn3)nc2n(C2CCCC2)c1=O [Palbociclib] + CC(=O)Nc1cccc(-n2c(=O)n(C3CC3)c(=O)c3c(Nc4ccc(I)cc4F)n(C)c(=O)c(C)c32)c1 [Trametinib] (partner 0.02 µM)
In short: as §1

Palbociclib + OSI-027 = compound: CC(=O)c1c(C)c2cnc(Nc3ccc(N4CCNCC4)cn3)nc2n(C2CCCC2)c1=O [Palbociclib] + COc1cccc2cc(-c3nc([C@H]4CC[C@H](C(=O)O)CC4)n4ncnc(N)c34)[nH]c12 [OSI-027] (partner 0.5 µM)
In short: as §1

Palbociclib + Pemetrexed = compound: CC(=O)c1c(C)c2cnc(Nc3ccc(N4CCNCC4)cn3)nc2n(C2CCCC2)c1=O [Palbociclib] + Nc1nc2[nH]cc(CCc3ccc(C(=O)N[C@@H](CCC(=O)O)C(=O)O)cc3)c2c(=O)[nH]1 [Pemetrexed] (partner 0.2 µM)
In short: as §1

Palbociclib + AZD7762 = compound: CC(=O)c1c(C)c2cnc(Nc3ccc(N4CCNCC4)cn3)nc2n(C2CCCC2)c1=O [Palbociclib] + NC(=O)Nc1cc(-c2cccc(F)c2)sc1C(=O)N[C@H]1CCCNC1 [AZD7762] (partner 0.2 µM)
In short: as §1

Palbociclib + Vorinostat = compound: CC(=O)c1c(C)c2cnc(Nc3ccc(N4CCNCC4)cn3)nc2n(C2CCCC2)c1=O [Palbociclib] + O=C(CCCCCCC(=O)Nc1ccccc1)NO [Vorinostat] (partner 1 µM)
In short: as §1

Palbociclib = compound: CC(=O)c1c(C)c2cnc(Nc3ccc(N4CCNCC4)cn3)nc2n(C2CCCC2)c1=O [Palbociclib]
In short: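 Cells of lung cancer lines were placed in 1536-well plates and kept overnight at 37 °C. Pinning then delivered five library-drug doses (not always all listed), spaced by √10, onto plates anchored with vehicle, and the cells were left 5 days without changing medium. One step fixed, permeabilised and stained them with Hoechst, and MetaXpress counted nuclei in 4× images. Viability, as a median over plates, is treated-well nuclei divided by vehicle-well nuclei, with acceptance only at control CV below 25% and at least one doubling.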

Palbociclib + Phenformin = compound: CC(=O)c1c(C)c2cnc(Nc3ccc(N4CCNCC4)cn3)nc2n(C2CCCC2)c1=O [Palbociclib] + N=C(N)NC(=N)NCCc1ccccc1 [Phenformin] (partner 250 µM)
In short: as §1

Palbociclib + Foretinib = compound: CC(=O)c1c(C)c2cnc(Nc3ccc(N4CCNCC4)cn3)nc2n(C2CCCC2)c1=O [Palbociclib] + COc1cc2c(Oc3ccc(NC(=O)C4(C(=O)Nc5ccc(F)cc5)CC4)cc3F)ccnc2cc1OCCCN1CCOCC1 [Foretinib] (partner 0.25 µM)
In short: as §1

Palbociclib + Luminespib = compound: CC(=O)c1c(C)c2cnc(Nc3ccc(N4CCNCC4)cn3)nc2n(C2CCCC2)c1=O [Palbociclib] + CCNC(=O)c1noc(-c2cc(C(C)C)c(O)cc2O)c1-c1ccc(CN2CCOCC2)cc1 [Luminespib] (partner 0.01 µM)
In short: as §1

Palbociclib + Dasatinib = compound: CC(=O)c1c(C)c2cnc(Nc3ccc(N4CCNCC4)cn3)nc2n(C2CCCC2)c1=O [Palbociclib] + Cc1nc(Nc2ncc(C(=O)Nc3c(C)cccc3Cl)s2)cc(N2CCN(CCO)CC2)n1 [Dasatinib] (partner 0.075 µM)
In short: as §1

NCI-H1648 showed a relative viability (Palbociclib + Tozasertib; first compound 0.01 µM) of 0.585, a relative viability (Palbociclib + Tozasertib; first compound 0.1 µM) of 0.405 and a relative viability (Palbociclib + Tozasertib; first compound 0.3162 µM) of 0.526. The relative viability (Palbociclib + Tozasertib; first compound 1 µM) was 0.175, the relative viability (Palbociclib + Olaparib; first compound 0.01 µM) was 0.679 and the relative viability (Palbociclib + Olaparib; first compound 0.03162 µM) was 0.71. For the same cell line, the relative viability (Palbociclib + Olaparib; first compound 0.1 µM) was 0.518, the relative viability (Palbociclib + Olaparib; first compound 0.3162 µM) was 0.587 and the relative viability (Palbociclib + Olaparib; first compound 1 µM) was 0.37. It also gave a relative viability (Palbociclib + Decitabine; first compound 0.01 µM) of 0.651, a relative viability (Palbociclib + Decitabine; first compound 0.03162 µM) of 0.376 and a relative viability (Palbociclib + Decitabine; first compound 0.1 µM) of 0.445. For the same cell line, the relative viability (Palbociclib + Decitabine; first compound 0.3162 µM) was 0.511, the relative viability (Palbociclib + Decitabine; first compound 1 µM) was 0.339 and the relative viability (Palbociclib + Trametinib; first compound 0.01 µM) was 0.657. It also gave a relative viability (Palbociclib + Trametinib; first compound 0.03162 µM) of 0.364, a relative viability (Palbociclib + Trametinib; first compound 0.1 µM) of 0.357 and a relative viability (Palbociclib + Trametinib; first compound 0.3162 µM) of 0.45. For the same cell line, the relative viability (Palbociclib + Trametinib; first compound 1 µM) was 0.406, the relative viability (Palbociclib + OSI-027; first compound 0.01 µM) was 0.264 and the relative viability (Palbociclib + OSI-027; first compound 0.1 µM) was 0.256. It also gave a relative viability (Palbociclib + OSI-027; first compound 0.3162 µM) of 0.27, a relative viability (Palbociclib + OSI-027; first compound 1 µM) of 0.251 and a relative viability (Palbociclib + Pemetrexed; first compound 0.01 µM) of 0.76. The relative viability (Palbociclib + Pemetrexed; first compound 0.03162 µM) was 0.549, the relative viability (Palbociclib + Pemetrexed; first compound 0.1 µM) was 0.562 and the relative viability (Palbociclib + Pemetrexed; first compound 0.3162 µM) was 0.582. The relative viability (Palbociclib + Pemetrexed; first compound 1 µM) was 0.411, the relative viability (Palbociclib + AZD7762; first compound 0.01 µM) was 0.841 and the relative viability (Palbociclib + AZD7762; first compound 0.03162 µM) was 0.436. For the same cell line, the relative viability (Palbociclib + AZD7762; first compound 0.1 µM) was 0.598, the relative viability (Palbociclib + AZD7762; first compound 0.3162 µM) was 0.657 and the relative viability (Palbociclib + AZD7762; first compound 1 µM) was 0.56. The relative viability (Palbociclib + Vorinostat; first compound 0.01 µM) was 0.869, the relative viability (Palbociclib + Vorinostat; first compound 0.03162 µM) was 0.426 and the relative viability (Palbociclib + Vorinostat; first compound 0.1 µM) was 0.386. It also gave a relative viability (Palbociclib + Vorinostat; first compound 0.3162 µM) of 0.388, a relative viability (Palbociclib + Vorinostat; first compound 1 µM) of 0.398 and a relative viability (Palbociclib; 0.01 µM) of 1.12. For the same cell line, the relative viability (Palbociclib; 0.03162 µM) was 0.451, the relative viability (Palbociclib; 0.1 µM) was 0.667 and the relative viability (Palbociclib; 0.3162 µM) was 0.764. For the same cell line, the relative viability (Palbociclib; 0.5 µM, anchor plate) was 0.284 and the relative viability (Palbociclib; 1 µM) was 0.336.
NCI-H1623 gave a relative viability (Palbociclib + Phenformin; first compound 0.01 µM) of 0.602, a relative viability (Palbociclib + Phenformin; first compound 0.03162 µM) of 0.534 and a relative viability (Palbociclib + Phenformin; first compound 0.1 µM) of 0.628. The relative viability (Palbociclib + Phenformin; first compound 0.3162 µM) was 0.615, the relative viability (Palbociclib + Phenformin; first compound 1 µM) was 0.496 and the relative viability (Palbociclib + Tozasertib; first compound 0.01 µM) was 0.481. It also gave a relative viability (Palbociclib + Tozasertib; first compound 0.03162 µM) of 0.48, a relative viability (Palbociclib + Tozasertib; first compound 0.1 µM) of 0.476 and a relative viability (Palbociclib + Tozasertib; first compound 0.3162 µM) of 0.417. It also gave a relative viability (Palbociclib + Tozasertib; first compound 1 µM) of 0.37, a relative viability (Palbociclib + Foretinib; first compound 0.01 µM) of 0.97 and a relative viability (Palbociclib + Foretinib; first compound 0.03162 µM) of 0.741. The relative viability (Palbociclib + Foretinib; first compound 0.1 µM) was 0.867, the relative viability (Palbociclib + Foretinib; first compound 0.3162 µM) was 0.994 and the relative viability (Palbociclib + Foretinib; first compound 1 µM) was 0.64. For the same cell line, the relative viability (Palbociclib + OSI-027; first compound 0.01 µM) was 0.488, the relative viability (Palbociclib + OSI-027; first compound 0.03162 µM) was 0.512 and the relative viability (Palbociclib + OSI-027; first compound 0.1 µM) was 0.448. The relative viability (Palbociclib + OSI-027; first compound 0.3162 µM) was 0.398, the relative viability (Palbociclib + OSI-027; first compound 1 µM) was 0.364 and the relative viability (Palbociclib + Luminespib; first compound 0.01 µM) was 0.496. It also gave a relative viability (Palbociclib + Luminespib; first compound 0.03162 µM) of 0.473, a relative viability (Palbociclib + Luminespib; first compound 0.1 µM) of 0.587 and a relative viability (Palbociclib + Luminespib; first compound 0.3162 µM) of 0.463. It also gave a relative viability (Palbociclib + Luminespib; first compound 1 µM) of 0.463, a relative viability (Palbociclib + Dasatinib; first compound 0.01 µM) of 0.551 and a relative viability (Palbociclib + Dasatinib; first compound 0.03162 µM) of 0.473. It also gave a relative viability (Palbociclib + Dasatinib; first compound 0.1 µM) of 0.517, a relative viability (Palbociclib + Dasatinib; first compound 0.3162 µM) of 0.546 and a relative viability (Palbociclib + Dasatinib; first compound 1 µM) of 0.453. For the same cell line, the relative viability (Palbociclib; 0.01 µM) was 1.16, the relative viability (Palbociclib; 0.03162 µM) was 0.885 and the relative viability (Palbociclib; 0.1 µM) was 0.918. The relative viability (Palbociclib; 0.3162 µM) was 0.951 and the relative viability (Palbociclib; 1 µM) was 0.686.
